In patent US8541361B2, “Composition” (DSM IP Assets B.V., priority 2009, dated 2013):
Square brackets hold non-standard residues; d marks the D form. * marks the point of attachment. Palmitoyl = CCCCCCCCCCCCCCCC(=O)*; Dab = NCC[C@H](N)C(=O)O

Assay: Storage stability: normalized peptide content by analytical HPLC of glycerin/water solutions in glass vials, with or without salt
Type: physicochemical
Conditions: 40° C., glass vial
Description: (§1) Solutions of 127 mmol/kg H29C14—NH—CO-Dab-Val-Dab-OH in a Glycerin water mixture (˜2.3:1) containing salt concentrations of 382 mmol/kg have been prepared, distributed to 3 g per 10 ml glass vial and stored at 40° C. and 25° C. After various times, samples have been analyzed for their peptide content with analytical HPLC. The results have been normalized to the content at the preparation time to 100%.
as §1, with “119” for “127”, “Palm-Lys-Val-Lys-OH (SEQ ID NO:2)” for “H29C14—NH—CO-Dab-Val-Dab-OH”, “in” for “in a”, “one or three equivalents as indicated below” for “382 mmol/kg”, “40°” for “40° C. and 25°”
as §1, with “246” for “127”, “Palm-Lys-Val-Dab-OH (SEQ ID NO:5)” for “H29C14—NH—CO-Dab-Val-Dab-OH”, “in” for “in a”, “one or three equivalents as indicated below” for “382 mmol/kg”, “40°” for “40° C. and 25°”

## H29C14—NH—CO-Dab-Val-Dab-OH
3 eq. CaCl2 (382 mmol/kg), t0, 127 mmol/kg peptide in Glycerin water
  normalized peptide content: 100.0%
3 eq. CaCl2, 1 Month, 127 mmol/kg peptide in Glycerin water
  normalized peptide content: 92.2%
3 eq. CaCl2, 2 Month, 127 mmol/kg peptide in Glycerin water
  normalized peptide content: 96.9%
3 eq. CaCl2, 3 Month, 127 mmol/kg peptide in Glycerin water
  normalized peptide content: 101.1%
3 eq. CaCl2, 4 Month, 127 mmol/kg peptide in Glycerin water
  normalized peptide content: 95.4%
3 eq. CaCl2, 5 Month, 127 mmol/kg peptide in Glycerin water
  normalized peptide content: 89.0%
3 eq. CaCl2, 6 Month, 127 mmol/kg peptide in Glycerin water
  normalized peptide content: 88.9%
3 eq. LiCl (382 mmol/kg), t0, 127 mmol/kg peptide in Glycerin water
  normalized peptide content: 100.0%
3 eq. LiCl, 1 Month, 127 mmol/kg peptide in Glycerin water
  normalized peptide content: 93.1%
3 eq. LiCl, 2 Month, 127 mmol/kg peptide in Glycerin water
  normalized peptide content: 95.3%
3 eq. LiCl, 3 Month, 127 mmol/kg peptide in Glycerin water
  normalized peptide content: 99.8%
3 eq. LiCl, 4 Month, 127 mmol/kg peptide in Glycerin water
  normalized peptide content: 96.4%
3 eq. LiCl, 5 Month, 127 mmol/kg peptide in Glycerin water
  normalized peptide content: 90.7%
3 eq. LiCl, 6 Month, 127 mmol/kg peptide in Glycerin water
  normalized peptide content: 87.6%
3 eq. MgCl2 (382 mmol/kg), t0, 127 mmol/kg peptide in Glycerin water
  normalized peptide content: 100.0%
3 eq. MgCl2, 1 Month, 127 mmol/kg peptide in Glycerin water
  normalized peptide content: 93.7%
3 eq. MgCl2, 2 Month, 127 mmol/kg peptide in Glycerin water
  normalized peptide content: 96.5%
3 eq. MgCl2, 3 Month, 127 mmol/kg peptide in Glycerin water
  normalized peptide content: 100.0%
3 eq. MgCl2, 4 Month, 127 mmol/kg peptide in Glycerin water
  normalized peptide content: 94.9%
3 eq. MgCl2, 5 Month, 127 mmol/kg peptide in Glycerin water
  normalized peptide content: 89.7%
3 eq. MgCl2, 6 Month, 127 mmol/kg peptide in Glycerin water
  normalized peptide content: 90.7%
3 eq. ZnCl2 (382 mmol/kg), t0, 127 mmol/kg peptide in Glycerin water
  normalized peptide content: 100.0%
3 eq. ZnCl2, 1 Month, 127 mmol/kg peptide in Glycerin water
  normalized peptide content: 88.5%
3 eq. ZnCl2, 2 Month, 127 mmol/kg peptide in Glycerin water
  normalized peptide content: 93.5%
3 eq. ZnCl2, 3 Month, 127 mmol/kg peptide in Glycerin water
  normalized peptide content: 98.7%
3 eq. ZnCl2, 4 Month, 127 mmol/kg peptide in Glycerin water
  normalized peptide content: 96.5%
3 eq. ZnCl2, 5 Month, 127 mmol/kg peptide in Glycerin water
  normalized peptide content: 88.1%
3 eq. ZnCl2, 6 Month, 127 mmol/kg peptide in Glycerin water
  normalized peptide content: 92.3%
No salt, 1 Month, 127 mmol/kg peptide in Glycerin water
  normalized peptide content: 106.2%
No salt, 2 Month, 127 mmol/kg peptide in Glycerin water
  normalized peptide content: 91.7%
No salt, 3 Month, 127 mmol/kg peptide in Glycerin water
  normalized peptide content: 18.9%
No salt, 4 Month, 127 mmol/kg peptide in Glycerin water
  normalized peptide content: 11.5%
No salt, 5 Month, 127 mmol/kg peptide in Glycerin water
  normalized peptide content: 10.1%
No salt, t0, 127 mmol/kg peptide in Glycerin water (~2.3:1)
  normalized peptide content: 100.0%

## Palm-Lys-Val-Lys-OH (Palmitoyl-Lys-Val-Lys-OH; SMILES CCCCCCCCCCCCCCCC(=O)N[C@@H](CCCCN)C(=O)N[C@H](C(=O)N[C@@H](CCCCN)C(=O)O)C(C)C) [peptide substituted with a lipophilic moiety; Palm means palmitoyl]
1 eq MgCl2, 1 Month, 119 mmol/kg peptide in Glycerin water
  normalized peptide content: 81.4%
1 eq MgCl2, t0, 119 mmol/kg peptide in Glycerin water
  normalized peptide content: 100.0%
3 eq LiCl, 1 Month, 119 mmol/kg peptide in Glycerin water
  normalized peptide content: 83.6%
3 eq LiCl, t0, 119 mmol/kg peptide in Glycerin water
  normalized peptide content: 100.0%
3 eq MgCl2, 1 Month, 119 mmol/kg peptide in Glycerin water
  normalized peptide content: 87.4%
3 eq MgCl2, t0, 119 mmol/kg peptide in Glycerin water
  normalized peptide content: 100.0%
3 eq NaCl, 1 Month, 119 mmol/kg peptide in Glycerin water
  normalized peptide content: 82.0%
3 eq NaCl, t0, 119 mmol/kg peptide in Glycerin water
  normalized peptide content: 100.0%
No salt, 1 Month, 119 mmol/kg peptide in Glycerin water
  normalized peptide content: 76.4%
No salt, t0, 119 mmol/kg peptide in Glycerin water (~2.3:1)
  normalized peptide content: 100.0%

## Palm-Lys-Val-Dab-OH (Palmitoyl-Lys-Val-[Dab]-OH; SMILES CCCCCCCCCCCCCCCC(=O)N[C@@H](CCCCN)C(=O)N[C@H](C(=O)N[C@@H](CCN)C(=O)O)C(C)C) [peptide substituted with a lipophilic moiety; Palm means palmitoyl and Dab means 2,4-diaminobutyroyl]
1 eq MgCl2, 1 Month, 246 mmol/kg peptide in Glycerin water
  normalized peptide content: 71.7%
1 eq MgCl2, t0, 246 mmol/kg peptide in Glycerin water
  normalized peptide content: 100.0%
3 eq LiCl, 1 Month, 246 mmol/kg peptide in Glycerin water
  normalized peptide content: 75.9%
3 eq LiCl, t0, 246 mmol/kg peptide in Glycerin water
  normalized peptide content: 100.0%
3 eq MgCl2, 1 Month, 246 mmol/kg peptide in Glycerin water
  normalized peptide content: 70.5%
3 eq MgCl2, t0, 246 mmol/kg peptide in Glycerin water
  normalized peptide content: 100.0%
3 eq NaCl, 1 Month, 246 mmol/kg peptide in Glycerin water
  normalized peptide content: 75.7%
3 eq NaCl, t0, 246 mmol/kg peptide in Glycerin water
  normalized peptide content: 100.0%
No salt, 1 Month, 246 mmol/kg peptide in Glycerin water
  normalized peptide content: 44.2%
No salt, t0, 246 mmol/kg peptide in Glycerin water (~2.3:1)
  normalized peptide content: 100.0%
